Measured values taken from patent US8143290B2, “Chemical compounds 572” (AstraZeneca AB, priority 2006, dated 2012).

biological target: T1, recombinant human GR (Homo sapiens, UniProt P04150); assay: Human Glucocorticoid Receptor (GR) Assay, fluorescence polarization; assay type: binding; conditions: GS Red tracer, incubated 2 h at r.t., XLfit model 205, read-out: GRhuFL_FP_v2 Mean IC50
T1 construct: purchased Panvera/Invitrogen P2812 (kit P2893)
T1 sequence (P04150 1-777): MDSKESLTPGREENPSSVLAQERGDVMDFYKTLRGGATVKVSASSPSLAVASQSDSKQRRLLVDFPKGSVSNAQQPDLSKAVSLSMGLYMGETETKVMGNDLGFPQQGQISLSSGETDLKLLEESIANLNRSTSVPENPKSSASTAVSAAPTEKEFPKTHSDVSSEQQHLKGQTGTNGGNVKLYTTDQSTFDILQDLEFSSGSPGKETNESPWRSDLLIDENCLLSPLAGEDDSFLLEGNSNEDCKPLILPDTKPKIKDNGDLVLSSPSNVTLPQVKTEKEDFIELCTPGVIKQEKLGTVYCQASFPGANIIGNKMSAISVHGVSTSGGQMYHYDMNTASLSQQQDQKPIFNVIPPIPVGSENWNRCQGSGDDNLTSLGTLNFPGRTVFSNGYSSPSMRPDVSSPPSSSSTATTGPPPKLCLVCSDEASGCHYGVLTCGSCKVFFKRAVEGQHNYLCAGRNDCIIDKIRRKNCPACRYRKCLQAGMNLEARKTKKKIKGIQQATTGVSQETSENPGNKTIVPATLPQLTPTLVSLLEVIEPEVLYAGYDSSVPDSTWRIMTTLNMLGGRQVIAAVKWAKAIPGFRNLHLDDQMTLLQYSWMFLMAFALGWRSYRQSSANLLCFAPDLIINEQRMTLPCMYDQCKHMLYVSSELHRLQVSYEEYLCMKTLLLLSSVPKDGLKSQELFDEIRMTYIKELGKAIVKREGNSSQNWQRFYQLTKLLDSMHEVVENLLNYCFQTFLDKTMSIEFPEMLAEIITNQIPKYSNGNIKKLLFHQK
How it was run: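 Fluorescence polarization kit assay: recombinant GR and GS Red fluorescent ligand with Stabilizing Peptide and DTT in potassium phosphate/sodium molybdate/EDTA screening buffer. Plates incubated 2 h in the dark at r.t.; DMSO served as 0% and dexamethasone as 100% control.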

Compared with `COc1cccc([C@@H](Oc2ccc3c(cnn3-c3ccc(F)cc3)c2)[C@H](C)NC(=O)c2nccs2)c1` [Example 135, N-[(1R,2S)-1-[1-(4-fluorophenyl)indazol-5-yl]oxy-1-(3-methoxyphenyl)propan-2-yl]1,3-thiazole-2-carboxamide], `COc1cccc([C@@H](Oc2ccc3c(cnn3-c3ccc(F)cc3)c2)[C@H](C)NC(=O)c2ccc(Cl)s2)c1` [Example 295, 5-chloro-N-[(1R,2S)-1-[1-(4-fluorophenyl)indazol-5-yl]oxy-1-(3-methoxyphenyl)propan-2-yl]thiophene-2-carboxamide] is 1.8-fold higher in IC50: 3.1 nM for the first, 5.7 nM for the second.

Compared with `Cc1ccc([C@@H](Oc2ccc3c(cnn3-c3ccc(F)cc3)c2)[C@H](C)NC(=O)C(C)(F)F)cc1F` [Example 229, 2,2-difluoro-N-[(1R,2S)-1-(3-fluoro-4-methyl-phenyl)-1-[1-(4-fluorophenyl)indazol-5-yl]oxy-propan-2-yl]propanamide], `Cc1cccc([C@@H](Oc2ccc3c(cnn3-c3ccc(F)cc3)c2)[C@H](C)NC(=O)C(C)(F)F)c1` [Example 239, 2,2-difluoro-N-[(1R,2S)-1-[1-(4-fluorophenyl)indazol-5-yl]oxy-1-(3-methylphenyl)propan-2-yl]propanamide] is 1.6-fold higher in IC50: 5.5 nM for the first, 9 nM for the second.

`Cc1ccc(C)c([C@@H](Oc2ccc3c(cnn3-c3ccc(F)cc3)c2)[C@H](C)NC(=O)C2(C)CC2)c1` [Example 215, N-[(1R,2S)-1-(2,5-dimethylphenyl)-1-[1-(4-fluorophenyl)indazol-5-yl]oxy-propan-2-yl]-1-methyl-cyclopropane-1-carboxamide] and `COc1c(C)cc([C@@H](Oc2ccc3c(cnn3-c3ccc(F)cc3)c2)[C@H](C)NC(=O)C2(C)CC2)cc1C` [Example 221, N-[(1R,2S)-1-[1-(4-fluorophenyl)indazol-5-yl]oxy-1-(4-methoxy-3,5-dimethyl-phenyl)propan-2-yl]-1-methyl-cyclopropane-1-carboxamide] are the same in IC50: 4.4 nM for the first, 4.4 nM for the second.

`CCCC(=O)N[C@@H](C)[C@H](Oc1ccc2c(cnn2-c2ccc(F)cc2)c1)c1ccccc1` [Example 41, N-[(1R,2S)-1-[1-(4-fluorophenyl)indazol-5-yl]oxy-1-phenyl-propan-2-yl]butanamide] and `CCC(=O)N[C@@H](C)[C@H](Oc1ccc2c(cnn2-c2ccc(F)cc2)c1)c1ccccc1` [Example 3, N-((1S,2R)-2-{[1-(4-fluorophenyl)-1H-indazol-5-yl]oxy}-1-methyl-2-phenylethyl)propanamide] are within 1.5-fold of each other in IC50: 2.6 nM for the first, 3.2 nM for the second.

`Cc1cnc(C(=O)N[C@@H](C)[C@H](Oc2ccc3c(cnn3-c3ccc(F)cc3)c2)c2cc(F)ccc2C)s1` [Example 201, N-[(1R,2S)-1-(5-fluoro-2-methyl-phenyl)-1-[1-(4-fluorophenyl)indazol-5-yl]oxy-propan-2-yl]-5-methyl-1,3-thiazole-2-carboxamide] and `Cc1cnc(C(=O)N[C@@H](C)[C@H](Oc2ccc3c(cnn3-c3ccc(F)cc3)c2)c2ccc(Cl)cc2)s1` [Example 204, N-[(1R,2S)-1-(4-chlorophenyl)-1-[1-(4-fluorophenyl)indazol-5-yl]oxy-propan-2-yl]-5-methyl-1,3-thiazole-2-carboxamide] are within 1.5-fold of each other in IC50: 5.9 nM for the first, 6.7 nM for the second.

Going from `CCC[C@H](NC(=O)C(C)(C)C)[C@H](Oc1ccc2c(cnn2-c2ccc(F)cc2)c1)c1cccc(OC)c1` [Example 94, N-((1R,2S)-1-(1-(4-fluorophenyl)-1H-indazol-5-yloxy)-1-(3-methoxyphenyl)pentan-2-yl)pivalamide] to `COc1cccc([C@@H](Oc2ccc3c(cnn3-c3ccc(F)cc3)c2)[C@H](C)NC(=O)C(=O)OC(C)(C)C)c1` [Example 75, tert-Butyl [(1R,2S)-1-[1-(4-fluorophenyl)indazol-5-yl]oxy-1-(3-methoxyphenyl)propan-2-yl]carbamoylformate], the IC50 rises from 3.1 nM to 5.3 nM (1.7-fold).

`CC(C)(C)C(=O)NC(C(Oc1ccc2c(cnn2-c2ccc(F)cc2)c1)c1ccccc1)C(F)(F)F` (single isomer, unassigned) [Example 147D2E1, N-(1,1,1-trifluoro-3-(1-(4-fluorophenyl)-1H-indazol-5-yloxy)-3-phenylpropan-2-yl)pivalamide] and `COC(=O)N[C@@H](C)[C@H](Oc1ccc2c(cnn2-c2ccc(F)cc2)c1)c1ccccc1` [Example 4, Methyl ((1S,2R)-2-{[1-(4-fluorophenyl)-1H-indazol-5-yl]oxy}-1-methyl-2-phenylethyl)carbamate] are within 1.5-fold of each other in IC50: 7.4 nM for the first, 5.9 nM for the second.

Going from `C[C@H](NC(=O)CO)[C@H](Oc1ccc2c(cnn2-c2ccc(F)cc2)c1)c1ccc2c(c1)OCCO2` [Example 123, N-((1R,2S)-1-(2,3-dihydrobenzo[b][1,4]dioxin-6-yl)-1-(1-(4-fluorophenyl)-1H-indazol-5-yloxy)propan-2-yl)-2-hydroxyacetamide] to `CC(=O)OCC(=O)N[C@@H](C)[C@H](Oc1ccc2c(cnn2-c2ccc(F)cc2)c1)c1ccccc1` [Example 34, [(1R,2S)-1-[1-(4-fluorophenyl)indazol-5-yl]oxy-1-phenyl-propan-2-yl]carbamoylmethyl acetate], the IC50 falls from 4.2 nM to 2.4 nM (1.8-fold). The second is the more potent here.

`COc1cc([C@@H](Oc2ccc3c(cnn3-c3ccc(F)cc3)c2)[C@H](C)NC(=O)C(F)(F)F)ccc1SC` [Example 308, 2,2,2-trifluoro-N-((1R,2S)-1-(1-(4-fluorophenyl)-1H-indazol-5-yloxy)-1-(3-methoxy-4-(methylthio)phenyl)propan-2-yl)acetamide] and `Cc1ccc(F)cc1[C@@H](Oc1ccc2c(cnn2-c2ccc(F)cc2)c1)[C@H](C)NC(=O)C(F)(F)F` [Example 157, 2,2,2-trifluoro-N-[(1R,2S)-1-(5-fluoro-2-methyl-phenyl)-1-[1-(4-fluorophenyl)indazol-5-yl]oxy-propan-2-yl]acetamide] are within 1.5-fold of each other in IC50: 6.9 nM for the first, 5.3 nM for the second.

Going from `C[C@H](NC(=O)C(C)(C)C)[C@H](Oc1ccc2c(cnn2-c2ccc(F)cc2)c1)c1cccc(Cl)c1` [Example 178, N-[(1R,2S)-1-(3-chlorophenyl)-1-[1-(4-fluorophenyl)indazol-5-yl]oxy-propan-2-yl]-2,2-dimethyl-propanamide] to `Cc1cc([C@@H](Oc2ccc3c(cnn3-c3ccc(F)cc3)c2)[C@H](C)NC(=O)C(C)(C)C)ccc1Cl` [Example 191, N-[(1R,2S)-1-(4-chloro-3-methyl-phenyl)-1-[1-(4-fluorophenyl)indazol-5-yl]oxy-propan-2-yl]-2,2-dimethyl-propanamide], the IC50 rises from 3.9 nM to 5.9 nM (1.5-fold). The first is the more potent here.

Going from `C[C@H](NC(=O)C(F)(F)F)[C@H](Oc1ccc2c(cnn2-c2ccc(CO)cc2)c1)c1ccccc1` [Example 141, 2,2,2-trifluoro-N-((1R,2S)-1-(1-(4-(hydroxymethyl)phenyl)-1H-indazol-5-yloxy)-1-phenylpropan-2-yl)acetamide] to `CCCc1ccc([C@@H](Oc2ccc3c(cnn3-c3ccc(F)cc3)c2)[C@H](C)NC(=O)C(F)(F)F)cc1` [Example 165, 2,2,2-trifluoro-N-[(1R,2S)-1-[1-(4-fluorophenyl)indazol-5-yl]oxy-1-(4-propylphenyl)propan-2-yl]acetamide], the IC50 rises from 3.3 nM to 6.4 nM (1.9-fold).

`COc1cccc([C@@H](Oc2ccc3c(cnn3-c3ccc(F)cc3)c2)[C@H](C)NC(=O)c2cc(C)n(C)n2)c1` [Example 287, N-[(1R,2S)-1-[1-(4-fluorophenyl)indazol-5-yl]oxy-1-(3-methoxyphenyl)propan-2-yl]-1,5-dimethyl-pyrazole-3-carboxamide] and `COc1cccc([C@@H](Oc2ccc3c(cnn3-c3ccc(F)cc3)c2)[C@H](C)NC(=O)c2cc3ccccn3n2)c1` [Example 293, N-[(1R,2S)-1-[1-(4-fluorophenyl)indazol-5-yl]oxy-1-(3-methoxyphenyl)propan-2-yl]-1,9-diazabicyclo[4.3.0]nona-2,4,6,8-tetraene-8-carboxamide] are within 1.5-fold of each other in IC50: 4.3 nM for the first, 4.4 nM for the second.

Compared with `C[C@H](NC(=O)C1(C)CC1)[C@H](Oc1ccc2c(cnn2-c2ccc(F)cc2)c1)c1ccc(Cl)cc1` [Example 222, N-[(1R,2S)-1-(4-chlorophenyl)-1-[1-(4-fluorophenyl)indazol-5-yl]oxy-propan-2-yl]-1-methyl-cyclopropane-1-carboxamide], `COC(=O)C(=O)N[C@@H](C)[C@H](Oc1ccc2c(cnn2-c2ccc(F)cc2)c1)c1ccccc1` [Example 35, Methyl [(1R,2S)-1-[1-(4-fluorophenyl)indazol-5-yl]oxy-1-phenyl-propan-2-yl]carbamoylformate] is 1.7-fold lower in IC50: 3.5 nM for the first, 2.1 nM for the second.

First: Cc1c(F)cccc1[C@@H](Oc1ccc2c(cnn2-c2ccc(F)cc2)c1)[C@H](C)NC(=O)C(C)(C)C [Example 190, N-[(1R,2S)-1-(3-fluoro-2-methyl-phenyl)-1-[1-(4-fluorophenyl)indazol-5-yl]oxy-propan-2-yl]-2,2-dimethyl-propanamide]
Second: C[C@H](NC(=O)C(F)(F)F)[C@H](Oc1ccc2c(cnn2C2CCCC2)c1)c1ccccc1 [Example 130, N-[(1R,2S)-1-(1-cyclopentylindazol-5-yl)oxy-1-phenyl-propan-2-yl]-2,2,2-trifluoro-acetamide]
The IC50 of the first is 1.8-fold higher: 4.5 nM for the first, 2.5 nM for the second.
